Measurements taken from patent publication US20260265267A1, “NOVEL COMPOUNDS WITH MTORC2-INHIBITORY ACTIVITY AND USES THEREOF” (Aliad Biopharma, priority 2023, published 2026).

Key:
[1] = test system: tau aggregates in the brain of 5×FAD mice; assay: Tau aggregate removal in the brain of 5×FAD mice (AT8 antibody staining); type: in vivo; conditions: 5 mg/kg, 14 days
Experimental: (§1) In order to evaluate the efficacy of HN2210, HN2213, and HN2313 on Alzheimer's disease-related symptoms, specifically regarding 1) memory and cognitive impairment, 2) amyloid plaques, 3) neurofibrillary tangles (NFTs), and 4) brain inflammation, an in vivo efficacy assessment of HN2210, HN2213 and HN2313 was conducted using 5×FAD Alzheimer's disease model mice. The 5×FAD mice were purchased from Jackson Lab, USA (Cat #034840-JAX) and crossed once with C57bl6 mice to produce F1 heterozygous offspring (Het). The compound was administered via intraperitoneal injection to 6-month-old 5×FAD Het mice, followed by behavioral testing. The normal control mice, which were littermates of the 5×FAD Het mice, were aged to 6 months and received DMSO injection at the same volume.
In order to assess the neurofibrillary tangle removal effect of HN2210, HN2213, and HN2313 compounds in the brains of Alzheimer's disease model mice, the following test was conducted using 5×FAD-DMSO mice without compound treatment, 5×FAD mice treated with HN2210, HN2213, or HN2313 compounds, and normal mice as controls.
Specifically, AT8 antibody stains hyperphosphorylated Tau protein that constitutes tau aggregates. Therefore, tau aggregates formed in the hippocampus of 5×FAD mouse can be measured using immunostaining with the AT8 antibody. Brain slices were triple-stained with the AT8 antibody, MAP2 which is a neuronal marker, and DAPI to label nuclei, and the dentate gyrus region of the hippocampus was observed under a confocal scanning microscope.

mTORC1 = mTORC1 inhibitory activity in primary cultured cerebral neurons (S6K Thr389 phosphorylation); type: cell-based, SD mice; conditions: for pThr389-S6K/S6K (% control): 24 hours
[2] = test system: 5×FAD Alzheimer's disease model mice; assay: Y-maze test in 5×FAD mice (short-term memory); type: in vivo
Experimental: as §1
Specifically, the Y-maze test was performed using a Y-shaped structure maze made of black acrylic with each arm at a […], and light and a camera were installed on the ceiling, and we measured the number of entries for white mice to freely enter each arm while the surroundings were covered with a curtain. This procedure was used to analyze short-term memory. In order to adapt mice to the environment, they were acclimated to the experimental space for 30 minutes. The mice were placed at one end of the maze and allowed to move freely for 12 minutes. The test was conducted with observation periods divided into 8, 10, and 12 minutes. When all four paws of a mice entered an arm, it was considered as fully entered, and the number of entries into each arm without repetition was recorded. The number of entries into each of the three different arms was divided by the total number of entries into all arms minus 2, and expressed as a percentage.

[3] = test system: 5×FAD Alzheimer's disease model mice; assay: Morris water maze test in 5×FAD mice (spatial perceptive ability); type: in vivo; conditions: for Morris water maze time spent swimming in the target quadrant, % of the normal control level / Morris water maze time spent swimming in the target quadrant, increase compared to 5×FAD-DMSO mice: 14 days (FIG. 8c); for Morris water maze time spent in the target quadrant, % of the normal control level / Morris water maze time spent in the target quadrant, increase compared to 5×FAD-DMSO mice: 14 days (FIG. 6b)
Experimental: as §1
Specifically, a 50 cm deep water tank filled with water (25.0±1.0° C.) was divided into four equal quadrants, and a platform (12 cm diameter) was placed 3 mm below the water surface in the center of one quadrant. The training test consisted of a 1-minute free swimming practice without the platform foothold on the first day and a four days of training, during which the animal used environmental cues to locate the hidden platform foothold, with four trials per day. The following day, the platform was removed, and the time the experimental animal spent in the target quadrant was measured (probe trial). Videos were recorded and analyzed using the Ethovision video tracking system (Noldus Information Technology, Wageningen, Netherlands). The data included the time spent swimming in the target quadrant and the number of crossings over the virtual platform's previous position.

mTORC2 = mTORC2 inhibitory activity in primary cultured cerebral neurons (Akt Ser473 phosphorylation); type: cell-based, SD mice; conditions: for effect on Akt Ser473 phosphorylation / decrease in AKT Ser473 phosphorylation at 24 hours: 500 nM or 100 nM; for effect on Akt Ser473 phosphorylation / pSer473-AKT/AKT (% control): 24 hours
Experimental: Specifically, primary neural cells were cultured from the cerebral cortex of E16 embryos of SD mice with a gestational age 16-day (Orient Bio). The extracted brain was separated into the left and right hemispheres, the meninges were removed, and the brains were treated with trypsin in Ca^2+/Mg^2+-free HBSS solution.
The time-dependent changes in Akt Ser473 phosphorylation, Akt Thr308 phosphorylation, and LC3-II levels were measured by Western blot analysis.

[4] = 5 mg/kg, intraperitoneal, once daily, 14 days (FIG. 5)

O=C1c2cc(F)c(N3CCOCC3)cc2COc2cc3c(cc21)OCO3 [HN2210, 8-(morpholino)-9-fluoro[2]benzoxepino[3,4-f]-1,3-benzodioxol-11(6H)-one]
reduction of AT8 antibody signals in the dentate gyrus compared to the 5×FAD-DMSO group [1]: 61%
effect on S6K Thr389 phosphorylation (mTORC1; 500 nM or 100 nM, time course to 24 hours (HN2304: from 6 to 24 hours)): reduced p70S6K Thr389 phosphorylation
pThr389-S6K/S6K (% control) (mTORC1; 500 nM): 23 % control
increase in S6K Thr389 phosphorylation at 3 hours (mTORC1; at 3 hours): 49%
decrease in S6K Thr389 phosphorylation at 24 hours (mTORC1; at 24 hours): 77%
Y-maze % alternation, % of the normal control level ([2]; 0.2 mg/kg, 14 days (FIG. 8a)): approximately 85%
Y-maze % alternation, increase compared to 5×FAD-DMSO mice ([2]; 0.2 mg/kg, 14 days (FIG. 8a)): 1.21 fold
Y-maze % alternation, % of the normal control level ([2]; 1 mg/kg, 14 days (FIG. 8a)): ~82%
Y-maze % alternation, increase compared to 5×FAD-DMSO mice ([2]; 1 mg/kg, 14 days (FIG. 8a)): 1.17 fold
Y-maze % alternation, % of the normal control level ([2]; 5 mg/kg, 14 days (FIG. 8a)): ~93%
Y-maze % alternation, increase compared to 5×FAD-DMSO mice ([2]; 5 mg/kg, 14 days (FIG. 8a)): 1.32 fold
Y-maze % alternation, % of the normal control level [2, 4]: 93%
Y-maze % alternation, increase compared to 5×FAD-DMSO mice [2, 4]: 1.25 fold
Morris water maze number of target crossings, % of the normal control level ([3]; 0.2 mg/kg, 14 days (FIG. 8b)): approximately 30%
Morris water maze number of target crossings, increase compared to 5×FAD-DMSO mice ([3]; 0.2 mg/kg, 14 days (FIG. 8b)): 2.02 fold
Morris water maze time spent swimming in the target quadrant, % of the normal control level ([3]; 0.2 mg/kg): approximately 87%
Morris water maze time spent swimming in the target quadrant, increase compared to 5×FAD-DMSO mice ([3]; 0.2 mg/kg): 2.14 fold
Morris water maze number of target crossings, % of the normal control level ([3]; 1 mg/kg, 14 days (FIG. 8b)): ~63%
Morris water maze number of target crossings, increase compared to 5×FAD-DMSO mice ([3]; 1 mg/kg, 14 days (FIG. 8b)): 4.27 fold
Morris water maze time spent swimming in the target quadrant, % of the normal control level ([3]; 1 mg/kg): ~85%
Morris water maze time spent swimming in the target quadrant, increase compared to 5×FAD-DMSO mice ([3]; 1 mg/kg): 2.07 fold
Morris water maze number of target crossings, % of the normal control level ([3]; 5 mg/kg, 14 days (FIG. 6a)): approximately 59%
Morris water maze number of target crossings, increase compared to 5×FAD-DMSO mice ([3]; 5 mg/kg, 14 days (FIG. 6a)): 3.96 fold
Morris water maze time spent in the target quadrant, % of the normal control level ([3]; 5 mg/kg): approximately 96%
Morris water maze time spent in the target quadrant, increase compared to 5×FAD-DMSO mice ([3]; 5 mg/kg): 1.74 fold
Morris water maze number of target crossings, % of the normal control level ([3]; 5 mg/kg, 14 days (FIG. 8b)): ~86%
Morris water maze number of target crossings, increase compared to 5×FAD-DMSO mice ([3]; 5 mg/kg, 14 days (FIG. 8b)): 5.84 fold
Morris water maze time spent swimming in the target quadrant, % of the normal control level ([3]; 5 mg/kg): ~96%
Morris water maze time spent swimming in the target quadrant, increase compared to 5×FAD-DMSO mice ([3]; 5 mg/kg): 2.34 fold
effect on Akt Ser473 phosphorylation (mTORC2): reduce Akt Ser473 phosphorylation
decrease in AKT Ser473 phosphorylation at 24 hours (mTORC2): 67%
pSer473-AKT/AKT (% control) (mTORC2; 500 nM): 33 % control
decrease in AKT Ser473 phosphorylation from 30 minutes to 6 hours (mTORC2; from 30 minutes to 6 hours): approximately 50%

O=C1c2cc(F)c(NCc3ccccc3)cc2COc2cc3c(cc21)OCO3 [HN2213, 8-(benzylamino)-9-fluoro[2]benzoxepino[3,4-f]-1,3-benzodioxol-11(6H)-one]
reduction of AT8 antibody signals in the dentate gyrus compared to the 5×FAD-DMSO group [1]: 59%
pThr389-S6K/S6K (% control) (mTORC1; 500 nM): 137 % control
increase in S6K Thr389 phosphorylation in a time-dependent manner (mTORC1; time course to 24 hours): 37%
Y-maze % alternation, % of the normal control level [2, 4]: 97%
Y-maze % alternation, increase compared to 5×FAD-DMSO mice [2, 4]: 1.3 fold
Morris water maze number of target crossings, % of the normal control level ([3]; 5 mg/kg, 14 days (FIG. 6a)): ~60%
Morris water maze number of target crossings, increase compared to 5×FAD-DMSO mice ([3]; 5 mg/kg, 14 days (FIG. 6a)): 4 fold
Morris water maze time spent in the target quadrant, % of the normal control level ([3]; 5 mg/kg): ~105%
Morris water maze time spent in the target quadrant, increase compared to 5×FAD-DMSO mice ([3]; 5 mg/kg): 1.91 fold
selectivity for mTORC2 over mTORC1 (mTORC2): selective mTORC2 inhibitors
effect on Akt Ser473 phosphorylation (mTORC2): reduce Akt Ser473 phosphorylation
decrease in AKT Ser473 phosphorylation at 24 hours (mTORC2): 62%
pSer473-AKT/AKT (% control) (mTORC2; 500 nM): 38 % control

O=C1c2cc(F)c(NC3CCCC3)cc2COc2cc3c(cc21)OCO3 [HN2313, 8-(cyclopentylamino)-9-fluoro-[1,3]dioxolo[4′,5′:4,5]benzo[1,2-b]benzo[e]oxepin-11(6H)-one]
reduction of AT8 antibody signals in the dentate gyrus compared to the 5×FAD-DMSO group [1]: 49%
pThr389-S6K/S6K (% control) (mTORC1; 100 nM): 141 % control
increase in S6K Thr389 phosphorylation from 1 to 6 hours (mTORC1; from 1 to 6 hours): 2~3 fold
Y-maze % alternation, % of the normal control level [2, 4]: 90%
Y-maze % alternation, increase compared to 5×FAD-DMSO mice [2, 4]: 1.2 fold
Morris water maze number of target crossings, % of the normal control level ([3]; 5 mg/kg, 14 days (FIG. 6a)): ~82%
Morris water maze number of target crossings, increase compared to 5×FAD-DMSO mice ([3]; 5 mg/kg, 14 days (FIG. 6a)): 5.5 fold
Morris water maze time spent in the target quadrant, % of the normal control level ([3]; 5 mg/kg): ~84%
Morris water maze time spent in the target quadrant, increase compared to 5×FAD-DMSO mice ([3]; 5 mg/kg): 1.53 fold
selectivity for mTORC2 over mTORC1 (mTORC2): selective mTORC2 inhibitors
pSer473-AKT/AKT (% control) (mTORC2; 100 nM): 34 % control
effect on Akt Ser473 phosphorylation (mTORC2): reduce Akt Ser473 phosphorylation
decrease in AKT Ser473 phosphorylation at 24 hours (mTORC2): 66%
AKT Ser473 phosphorylation from 1 to 12 hours (mTORC2; from 1 to 12 hours): increased AKT Ser473 phosphorylation significantly
